Experimental data reported in patent US10112929B2, “Lactams as inhibitors of rock” (BRISTOL-MYERS SQUIBB COMPANY, priority 2015, dated 2018).
Structures can show the parent of a compound that is named as a salt.

Molecular target: ROCK2 (Homo sapiens (Human), UniProt O75116)
Experiment: biochemical
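Note: rho kinase enzyme reaction halted with EDTA, phospho- and non-phospho peptide separated for read-out, kinase activity inhibition derived across a dose-response series, DMSO under 2%.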

ROCK2, sequence (O75116 whole entry, species assumed): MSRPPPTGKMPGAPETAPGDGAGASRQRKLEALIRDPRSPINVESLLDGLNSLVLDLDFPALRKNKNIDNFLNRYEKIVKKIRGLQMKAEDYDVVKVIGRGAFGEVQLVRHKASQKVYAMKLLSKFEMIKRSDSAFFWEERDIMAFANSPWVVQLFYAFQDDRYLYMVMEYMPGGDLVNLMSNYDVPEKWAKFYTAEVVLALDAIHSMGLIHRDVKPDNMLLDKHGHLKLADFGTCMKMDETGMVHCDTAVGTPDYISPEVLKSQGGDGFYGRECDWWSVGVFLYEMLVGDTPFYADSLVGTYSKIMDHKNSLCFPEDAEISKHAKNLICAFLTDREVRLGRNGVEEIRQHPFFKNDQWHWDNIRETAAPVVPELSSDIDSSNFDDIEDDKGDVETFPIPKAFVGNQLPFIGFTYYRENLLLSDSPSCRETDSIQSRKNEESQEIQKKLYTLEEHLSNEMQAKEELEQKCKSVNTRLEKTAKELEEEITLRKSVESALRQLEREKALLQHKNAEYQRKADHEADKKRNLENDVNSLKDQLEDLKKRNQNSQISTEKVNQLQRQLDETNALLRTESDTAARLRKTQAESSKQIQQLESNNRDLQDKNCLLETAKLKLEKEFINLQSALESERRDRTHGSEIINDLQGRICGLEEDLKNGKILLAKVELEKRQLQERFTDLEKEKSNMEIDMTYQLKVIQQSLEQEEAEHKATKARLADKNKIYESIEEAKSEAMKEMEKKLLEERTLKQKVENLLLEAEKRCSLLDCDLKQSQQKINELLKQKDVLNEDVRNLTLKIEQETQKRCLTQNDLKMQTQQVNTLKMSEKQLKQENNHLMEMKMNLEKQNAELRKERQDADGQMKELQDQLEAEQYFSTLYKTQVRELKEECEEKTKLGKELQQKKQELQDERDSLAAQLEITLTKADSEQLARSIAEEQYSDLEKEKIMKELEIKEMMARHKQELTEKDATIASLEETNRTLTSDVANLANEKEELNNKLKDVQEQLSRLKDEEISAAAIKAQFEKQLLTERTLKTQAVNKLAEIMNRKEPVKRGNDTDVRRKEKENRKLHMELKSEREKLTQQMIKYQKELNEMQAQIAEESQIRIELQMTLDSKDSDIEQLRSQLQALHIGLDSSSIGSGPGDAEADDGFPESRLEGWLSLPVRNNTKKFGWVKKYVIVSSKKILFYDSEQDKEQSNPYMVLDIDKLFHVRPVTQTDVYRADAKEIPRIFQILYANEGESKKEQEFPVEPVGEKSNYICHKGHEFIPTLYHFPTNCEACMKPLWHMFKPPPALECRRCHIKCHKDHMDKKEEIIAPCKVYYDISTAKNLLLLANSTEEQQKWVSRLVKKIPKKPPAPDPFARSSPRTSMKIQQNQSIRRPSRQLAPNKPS

| Structure (SMILES) | IC50 [nM] |
| --- | --- |
| COc1cccc(NC2CCN(c3ccc(-c4ccnc(N)n4)c(C)n3)C2=O)c1 (single isomer, unassigned) [Example 122, 1-(5-(2-aminopyrimidin-4-yl)-6-methylpyridin-2-yl)-3-((3-methoxyphenyl)amino) pyrrolidin-2-one] | 10 to 100 |
| COCc1cc(N2CCC(Nc3cc(F)cc(OC)c3)C2=O)ccc1-c1cn[nH]c1 (single isomer, unassigned) [Example 185, 3-((3-fluoro-5-methoxyphenyl)amino)-1-(3-(methoxymethyl)-4-(1H-pyrazol-4-yl)phenyl)pyrrolidin-2-one] | 100 to 2200 |
| COc1cc(N2CCC(Nc3cccc(OC(F)F)c3)C2=O)ccc1-c1cn[nH]c1 (centres unmarked) [Example 66, 3-((3-(Difluoromethoxy)phenyl)amino)-1-(3-methoxy-4-(1H-pyrazol-4-yl)phenyl)pyrrolidin-2-one] | < 10 |
| COc1nc(N2CCC(N3CC[C@H](NC(C)=O)C3)C2=O)ccc1-c1cn[nH]c1 (mixture of isomers) [Example 294, N-((3S)-1′-(6-methoxy-5-(1H-pyrazol-4-yl)pyridin-2-yl)-2′-oxo-[1,3′-bipyrrolidin]-3-yl)acetamide] | 100 to 2200 |
| O=C1C(Nc2cccc(OCC3CC3)c2)CCN1c1ccc(-c2cn[nH]c2)c(F)c1 (single isomer, unassigned) [Example 361, 3-((3-(cyclopropylmethoxy)phenyl)amino)-1-(3-fluoro-4-(1H-pyrazol-4-yl)phenyl)pyrrolidin-2-one] | < 10 |
| COc1nc(N2CCC(N3CCC(OC)CC3)C2=O)ccc1-c1cn[nH]c1 (racemic) [Example 291, 1-(6-methoxy-5-(1H-pyrazol-4-yl)pyridin-2-yl)-3-(4-methoxypiperidin-1-yl)pyrrolidin-2-one hydrochloride] | 100 to 2200 |
| NC(=O)c1cccc(NC2CCN(c3ccc(-c4cn[nH]c4)cc3)C2=O)c1 (centres unmarked) [Example 388, 3-((1-(4-(1H-pyrazol-4-yl)phenyl)-2-oxopyrrolidin-3-yl)amino)benzamide] | < 10 |
| CNc1nc(N2CCC(Nc3cc(F)cc(OC)c3)C2=O)ccc1-c1cn[nH]c1 (single isomer, unassigned) [Example 251, 3-((3-fluoro-5-methoxyphenyl)amino)-1-(6-(methylamino)-5-(1H-pyrazol-4-yl)pyridin-2-yl)pyrrolidin-2-one] | 10 to 100 |
| COc1nc(N2CCC(N3CCC(CO)CC3)C2=O)ccc1-c1cn[nH]c1 (racemic) [Example 289, 3-(4-(hydroxymethyl)piperidin-1-yl)-1-(6-methoxy-5-(1H-pyrazol-4-yl)pyridin-2-yl)pyrrolidin-2-one] | 10 to 100 |
| COc1cc(NC2CCN(c3ccc(-c4cn[nH]c4)cc3)C2=O)ccc1F (single isomer, unassigned) [Example 18, 1-(4-(1H-pyrazol-4-yl)phenyl)-3-((4-fluoro-3-methoxyphenyl)amino)pyrrolidin-2-one] | < 10 |
| COc1cccc(NC2CCN(c3ccc(-c4cn[nH]c4)c(F)c3F)C2=O)c1 (single isomer, unassigned) [Example 306, 1-(2,3-difluoro-4-(1H-pyrazol-4-yl)phenyl)-3-((3-methoxyphenyl)amino) pyrrolidin-2-one] | < 10 |
| O=C1C(Nc2cccc(OC(F)F)c2)CCN1c1ccc(-c2cn[nH]c2)cc1 (single isomer, unassigned) [Example 232, 1-(4-(1H-pyrazol-4-yl)phenyl)-3-((3-(difluoromethoxy)phenyl)amino) pyrrolidin-2-one] | < 10 |
| COc1cccc(NC2CCN(c3ccc(-c4ccnc(N)c4)cc3)C2=O)c1 (single isomer, unassigned) [Example 76, 1-(4-(2-aminopyridin-4-yl)phenyl)-3-((3-methoxyphenyl)amino) pyrrolidin-2-one] | 100 to 2200 |
| COc1nc(N2CCC(Nc3cc(C)n(C)n3)C2=O)ccc1-c1cn[nH]c1 (racemic) [Example 271, 3-((1,5-dimethyl-1H-pyrazol-3-yl)amino)-1-(6-methoxy-5-(1H-pyrazol-4-yl)pyridin-2-yl)pyrrolidin-2-one] | 100 to 2200 |
| COc1cc(NC2CCN(c3ccc(-c4cn[nH]c4)c(OC(F)F)c3)C2=O)ccc1F (single isomer, unassigned) [Example 106, 1-[3-(difluoromethoxy)-4-(1H-pyrazol-4-yl)phenyl]-3-[(4-fluoro-3-methoxyphenyl)amino]pyrrolidin-2-one] | 10 to 100 |
| O=C1C(Nc2nc3ccccc3[nH]2)CCN1c1ccc(-c2cn[nH]c2)cc1 (single isomer, unassigned) [Example 56, 3-((1H-benzo[d]imidazol-2-yl)amino)-1-(4-(1H-pyrazol-4-yl)phenyl)pyrrolidin-2-one] | 10 to 100 |
| COc1cc(N2CCC(Nc3cccc(OC(F)(F)F)c3)C2=O)ccc1-c1cn[nH]c1 (centres unmarked) [Example 70, 1-(3-methoxy-4-(1H-pyrazol-4-yl)phenyl)-3-((3-(trifluoromethoxy)phenyl)amino)pyrrolidin-2-one] | 100 to 2200 |
| CCc1cc(N2CCC(Nc3cc(F)cc(OC)c3)C2=O)ccc1-c1cn[nH]c1 (single isomer, unassigned) [Example 246, 1-(3-ethyl-4-(1H-pyrazol-4-yl)phenyl)-3-((3-fluoro-5-methoxyphenyl)amino) pyrrolidin-2-one] | < 10 |

| Structure (SMILES) | IC50 [nM] |
| --- | --- |
| COc1cccc(OC2CCN(c3ccc(-c4cn[nH]c4)c(OC)n3)C2=O)c1 (single isomer, unassigned) [Example 171, 1-(6-methoxy-5-(1H-pyrazol-4-yl)pyridin 2-yl)-3-(3-methoxyphenoxy)pyrrolidin-2-one] | < 10 |
| COc1c(F)cccc1NC1CCN(c2ccc(-c3cn[nH]c3)c(OC(F)F)c2)C1=O (single isomer, unassigned) [Example 32, 1-(3-(difluoromethoxy)-4-(1H-pyrazol-4-yl)phenyl)-3-((3-fluoro-2-methoxyphenyl)amino)pyrrolidin-2-one] | 100 to 2200 |
| COc1nc(N2CCC(Nc3cccc(NC(C)=O)c3)C2=O)ccc1-c1cn[nH]c1 (racemic) [Example 260, N-(3-((1-(6-methoxy-5-(1H-pyrazol-4-yl)pyridin-2-yl)-2-oxopyrrolidin-3-yl)amino)phenyl)acetamide] | < 10 |
| COc1cc(F)cc(NC2CCN(c3cc(F)c(-c4cn[nH]c4)cc3F)C2=O)c1 (single isomer, unassigned) [Example 352, 1-(2,5-difluoro-4-(1H-pyrazol-4-yl)phenyl)-3-((3-fluoro-5-methoxyphenyl)amino)pyrrolidin-2-one] | < 10 |
| O=C1C(Nc2ccccc2)CCN1c1ccc(-c2cn[nH]c2)c(F)c1 (single isomer, unassigned) [Example 43, 1-(3-fluoro-4-(1H-pyrazol-4-yl)phenyl)-3-(phenylamino)pyrrolidin-2-one] | < 10 |
| O=C1C(Nc2cccc(OC(F)(F)F)c2)CCN1c1ccc(-c2cn[nH]c2)cc1 (centres unmarked) [Example 8, 1-(4-(1H-pyrazol-4-yl)phenyl)-3-((3-(trifluoromethoxy)phenyl)amino)pyrrolidin-2-one] | 10 to 100 |
| COc1cc(F)cc(NC2CCN(c3ccc(-c4cn[nH]c4)c(C(F)F)c3)C2=O)c1 (single isomer, unassigned) [Example 177, 1-(3-(difluoromethyl)-4-(1H-pyrazol-4-yl)phenyl)-3-((3-fluoro-5-methoxyphenyl)amino)pyrrolidin-2-one] | 100 to 2200 |
| CCOc1cc(N2CCC(Nc3cccc(OC)c3)C2=O)ccc1-c1cn[nH]c1 (single isomer, unassigned) [Example 34, 1-(3-ethoxy-4-(1H-pyrazol-4-yl)phenyl)-3-((3-methoxyphenyl)amino)pyrrolidin-2-one] | < 10 |
| COc1cc(F)cc(NC2CCN(c3ccc(-c4cn[nH]c4)c(C#N)c3)C2=O)c1 (single isomer, unassigned) [Example 374, 5-(3-((3-fluoro-5-methoxyphenyl)amino)-2-oxopyrrolidin-1-yl)-2-(1H-pyrazol-4-yl)benzonitrile] | 100 to 2200 |
| COc1ccc(F)c(NC2CCN(c3ccc(-c4cn[nH]c4)cc3)C2=O)c1 (single isomer, unassigned) [Example 239, 1-(4-(1H-pyrazol-4-yl)phenyl)-3-((2-fluoro-5-methoxyphenyl)amino)pyrrolidin-2-one] | 10 to 100 |
| COc1cc(NC2CCN(c3ccc(-c4cn[nH]c4)c(Cl)c3)C2=O)ccc1F (single isomer, unassigned) [Example 160, 1-(3-chloro-4-(1H-pyrazol-4-yl)phenyl)-3-((4-fluoro-3-methoxyphenyl)amino) pyrrolidin-2-one] | 10 to 100 |
| COc1cc(NC2CCN(c3ccc(-c4cn[nH]c4)c(OCCN(C)C)c3)C2=O)ccc1F (racemic) [Example 346, 1-(3-(2-(dimethylamino)ethoxy)-4-(1H-pyrazol-4-yl)phenyl)-3-((4-fluoro-3-methoxyphenyl)amino)pyrrolidin-2-one] | 100 to 2200 |
| COc1cc(NC2CCN(c3ccc(-c4cn[nH]c4)c(OC)c3)C2=O)cc(OC)c1 (single isomer, unassigned) [Example 139, 3-((3,5-dimethoxyphenyl)amino)-1-(3-methoxy-4-(1H-pyrazol-4-yl)phenyl) pyrrolidin-2-one] | 100 to 2200 |
| O=C1C(Nc2cncnc2)CCN1c1ccc(-c2cn[nH]c2)cc1 (racemic) [Example 227, 1-(4-(1H-pyrazol-4-yl)phenyl)-3-(pyrimidin-5-ylamino)pyrrolidin-2-one] | 10 to 100 |
| COc1cccc(NC2CCN(c3ccc(-c4cn[nH]c4)c(C#N)c3)C2=O)c1 (single isomer, unassigned) [Example 377, 5-(3-((3-methoxyphenyl)amino)-2-oxopyrrolidin-1-yl)-2-(1H-pyrazol-4-yl)benzonitrile] | 100 to 2200 |
| O=C1C(Nc2cccc(OCC3CC3)c2)CCN1c1ccc(-c2cn[nH]c2)cc1 (centres unmarked) [Example 11, 1-(4-(1H-pyrazol-4-yl)phenyl)-3-((3-(cyclopropylmethoxy)phenyl)amino)pyrrolidin-2-one] | < 10 |
| COc1nc(N2CCC(Nc3ccc(F)c(OCC4CC4)c3)C2=O)ccc1-c1cn[nH]c1 (single isomer, unassigned) [Example 216, 3-((3-(cyclopropylmethoxy)-4-fluorophenyl)amino)-1-(6-methoxy-5-(1H-pyrazol-4-yl)pyridin-2-yl)pyrrolidin-2-one] | < 10 |
